Non-standard residues stand in square brackets, D forms with d. Residues, ends and D or L forms follow the SMILES beside them. No end group written: not given here. Aib = CC(C)(N)C(=O)O
Key:
F508del-CFBE41o- cells = conditions: 20 μM peptide, 24 h, CCK-8, absorbance 450 nm
Description: The Cell Counting Kit 8 (CCK-8) assay was performed as follows to assess cell viability. About 1×10^4 F508del-CFBE41o- cells were seeded in each well of a 96-well plate and incubated at 37 °C and 5% CO2. After 24 h, the medium was replaced by MEM supplemented with 2 mM L-glutamine and containing each peptide at different concentrations. The plate was incubated for 24 h and subsequently 10 μl of CCK-8 reagent were added to each well. After 2 h incubation, the absorbance of each well was measured at 450 nm using a microplate reader (Infinite M200; Tecan, Salzburg, Austria).

[1] = system: Gram-negative bacterial strains and Staphylococcus aureus; test: MIC determination, summary over the strain panel; assay type: cell-based; conditions: summary of Table 3
Description: Peptides were tested against the Gram-negative Escherichia coli ATCC 25922, Ainetobacter baumannii ATCC 19606, P. aeruginosa ATCC 27853, P. aeruginosa PAO1; and the Gram-positive S. aureus ATCC 25923, MDR#1, MDR#2, MDR#3 and MDR#4. The MIC values were determined as previously reported. Briefly, bacteria were grown at 37 °C in Luria-Bertani broth (LB) until an optical density (OD) of 0.8 was reached (λ=590 nm). Aliquots of bacteria (50 µL) were added to each well of a 96-multiwell plate containing serial dilutions of the tested peptides in Mueller Hinton broth (MH). The final cell concentration was 1x10^6 CFU/ml.

P. aeruginosa PAO1 [2] = test: Murine lung infection model, wild-type littermates; assay type: in vivo, mice; conditions: 0.1 mg/kg (20 μM) i.t. 1 h after i.t. ~3 x 10^6 CFU PAO1, lungs at 24 h, three independent experiments
Description: (§1) The animal experiments were performed according to a protocol (protocol 23083347) approved by the Institutional Animal Care and Use Committee (IACUC) of the University of Pittsburgh based on the NIH guide for the care and use of laboratory animals. Transgenic mice with expression of the protein-coding region of the mouse Scnn1b (β-ENaC) and driven by rat airway-specific Scgb1a1 (also called the Clara cell secretory protein) gene were previously described and obtained from Dr. Wanda O'Neal from the University of North Carolina at Chapel Hill. β-ENaC mice in C57BL/6 genetic background were maintained in heterozygous conditions and continuously bred with C57BL/6 wild-type mice. Genotyping was performed for all pups to identify their respective genotypes. Mice expressing β-ENaC and their wild-type littermates at the same ages were used for experiments. Seven-week-old female and male mice were anesthetized by isoflurane inhalation and instilled intratracheally with ~3 x 10^6 CFU of P. aeruginosa PAO1 in 50 µl PBS. […] Control mice were given 50 µl of PBS without peptide. After 24 h, lungs were harvested, four right lobes of each mouse lung were homogenised, serial diluted to determine the total lung bacterial burden, according to the published method.

P. aeruginosa PAO1 [3] = test: Murine lung infection model, β-ENaC transgenic mice; assay type: in vivo; conditions: for lowering of lung bacterial burden (CFU): 0.1 mg/kg (20 μM) i.t. 1 h after i.t. ~3 x 10^6 CFU PAO1, lungs at 24 h, three independent experiments
Description: as §1

P. aeruginosa PAO1 [4] = test: Co-culture (biotic biofilm) on polarized airway epithelium at ALI; assay type: cell-based; conditions: 20 μM peptide in PBS for 2 h; PAO1 grown 6 h on polarized homozygous F508del airway epithelium at ALI; vs PBS
Description: This assay was performed using co-cultures of polarized and well-differentiated human bronchial epithelial cells derived from a homozygous F508del patient and P. aeruginosa PAO1 grown to a log phase. Polarized human epithelia in transwell permeable supports and maintained in ALI culture were inoculated with P. aeruginosa PAO1 in 50 µl of cell culture medium (initial inoculum of 200 bacterial cells per ALI culture insert, according to [75]) at the apical side of the supports for 1 h to allow attachment of the bacteria to the epithelium in ALI culture. Unattached bacteria were removed and the supports incubated (37 °C; 5% CO₂) for 5 h prior to the addition of peptide. Each peptide, at 20 μM, diluted in 100 µl PBS, was added for 2 h. After a total of 8 h, the airways surface liquid was collected and aliquots poured on plates for counting. Afterwards, the epithelium was disrupted by adding 150µl Tripsin-EDTA and incubated for 15 min. Subsequently, 200 µl Triton X-100 (0.1%) was added and the supports incubated again for 15 min. Serial dilution and counting of bacterial cells was performed on tryptic soy agar plates to determine the number of CFU.

[5] = system: intracellular calcium in null FRT cells; test: Microplate reader Fluo-4 Ca2+ assay; assay type: cell-based, rat; conditions: peptides 10 µM each, UTP 100 µM (Fig. 7) or 10 µM (method), acute addition
Description: Experiments for the evaluation of intracellular calcium mobilization were performed using an automated micro-plate reader (FluoStar) equipped with syringe pumps and optical excitation/emission filters (500/535 nm). FRT cells were cultured until confluence in 96-well microplates. Before starting the assay, cells were washed 3 times with complete PBS (200 μl/wash) and then loaded for 1 h at 37 °C with 5 μM Fluo-4/AM (Thermo Fisher Scientific) in PBS containing 10 mM glucose, 0.5 mM sulfinpyrazone and 1% fetal bovine serum. After loading, cells were washed twice with PBS (120 μl/wash) and incubated for 15 min at 37 °C with 100 μl of PBS plus 10 mM glucose and 0.5 mM sulfinpyrazone. The assay was run on one well at a time by programming the plate reader to acquire the fluorescence emitted from each well every 0.2 s for 120 s. At 2.8 s from the start of reading, the plate reader injected 100 μl of PBS (with glucose and sulfinpyrazone) containing vehicle alone (DMSO), peptides (10 µM each) or UTP (10 µM).

G1349D-CFTR = biological target: T1, G1349D-CFTR (Homo sapiens, UniProt P13569, G1349D); test: TEER/transepithelial conductance in G1349D-FRT cells; assay type: cell-based; conditions: 20 µM FSK + 10 µM peptide, 10 min, n ≥ 6
T1 construct: expressed in transfected cells
T1 sequence (P13569 whole entry G1349D): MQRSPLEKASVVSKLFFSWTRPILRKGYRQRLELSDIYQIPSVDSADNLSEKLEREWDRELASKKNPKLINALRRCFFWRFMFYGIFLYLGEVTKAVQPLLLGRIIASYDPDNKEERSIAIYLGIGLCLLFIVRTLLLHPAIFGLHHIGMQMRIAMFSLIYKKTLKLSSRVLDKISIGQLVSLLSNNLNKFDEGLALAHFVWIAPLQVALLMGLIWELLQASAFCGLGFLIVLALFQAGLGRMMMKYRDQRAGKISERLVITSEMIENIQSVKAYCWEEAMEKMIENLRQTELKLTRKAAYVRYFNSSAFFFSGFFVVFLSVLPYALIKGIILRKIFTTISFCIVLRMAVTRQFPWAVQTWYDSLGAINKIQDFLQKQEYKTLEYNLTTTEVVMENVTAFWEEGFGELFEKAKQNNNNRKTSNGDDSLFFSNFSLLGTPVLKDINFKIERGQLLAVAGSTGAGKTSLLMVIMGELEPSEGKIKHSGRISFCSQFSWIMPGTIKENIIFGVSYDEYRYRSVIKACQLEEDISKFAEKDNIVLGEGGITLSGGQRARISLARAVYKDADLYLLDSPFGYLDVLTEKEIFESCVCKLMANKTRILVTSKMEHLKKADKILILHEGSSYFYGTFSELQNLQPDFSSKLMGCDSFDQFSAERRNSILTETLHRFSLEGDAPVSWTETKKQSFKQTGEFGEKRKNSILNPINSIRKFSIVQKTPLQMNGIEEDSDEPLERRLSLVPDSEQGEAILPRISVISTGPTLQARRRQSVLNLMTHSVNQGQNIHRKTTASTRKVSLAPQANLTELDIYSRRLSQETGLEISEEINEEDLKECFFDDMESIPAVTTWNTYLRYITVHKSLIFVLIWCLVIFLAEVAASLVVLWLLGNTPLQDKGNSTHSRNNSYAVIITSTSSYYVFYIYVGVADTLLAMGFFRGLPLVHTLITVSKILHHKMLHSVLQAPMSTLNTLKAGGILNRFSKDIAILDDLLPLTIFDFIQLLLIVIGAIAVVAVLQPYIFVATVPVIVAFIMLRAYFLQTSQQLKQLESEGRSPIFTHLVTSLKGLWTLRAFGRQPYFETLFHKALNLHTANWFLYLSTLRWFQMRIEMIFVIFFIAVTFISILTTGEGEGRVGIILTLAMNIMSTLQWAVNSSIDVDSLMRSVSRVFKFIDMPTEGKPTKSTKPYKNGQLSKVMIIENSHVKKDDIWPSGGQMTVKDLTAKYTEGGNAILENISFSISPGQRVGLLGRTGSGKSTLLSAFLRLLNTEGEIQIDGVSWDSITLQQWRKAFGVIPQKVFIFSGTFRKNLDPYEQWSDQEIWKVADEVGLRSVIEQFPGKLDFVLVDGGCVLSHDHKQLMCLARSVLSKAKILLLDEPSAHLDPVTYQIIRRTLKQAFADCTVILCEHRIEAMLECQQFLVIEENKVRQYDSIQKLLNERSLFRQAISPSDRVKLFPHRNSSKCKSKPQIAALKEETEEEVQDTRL
Description: (§2) To evaluate the effect of the peptides on the ion current controlled by CFTR, the transepithelial conductance was measured in epithelia formed by FRT expressing CFTR with different mutation. Cells were seeded on permeable supports (24 Millicell plates PSHT01QR1) and then incubated in their standard culture medium. Cells expressing F508del mutation were pretreated with 1 μM VX-809 to deliver the defective protein to the plasma membrane. After 24 h, the medium was replaced with saline solution containing (in mM): 130 NaCl, 2.7 KCl, 1.5 KH2PO4, 1 CaCl2, 0.5 MgCl2, 10 glucose, 10 Na-Hepes (pH, 7.4), which was added to both apical and basolateral compartments of the permeable supports. Initially, TEER was measured in basal conditions without CFTR activation, using the epithelial voltmeter (MILLICELL ERS-2, Millipore Burlington, MA). Afterwards, 20 μM FSK + 10 μM GEN (as positive control) or FSK+ peptides at the desired concentration were added on the apical side of the epithelium and TEER measurement was performed at 37 °C after 10 min from the addition of the compounds. Finally, TEER was measured after the addition of 30 μM PPQ102 to the apical side of the epithelium, to inhibit CFTR. From the values of TEER obtained before and after CFTR inhibition, the CFTR-dependent TEER was calculated, for each condition. All TEER values were converted to transepithelial conductance (TEEC) using the formula TEEC = 1/TEER [68].

G551D-CFTR = biological target: T2, G551D-CFTR (Homo sapiens, UniProt P13569, G551D); test: TEER/transepithelial conductance in G551D-FRT cells; assay type: cell-based; conditions: 20 µM FSK + 10 µM peptide, 10 min, n ≥ 6
T2 construct: expressed in transfected cells
T2 sequence (P13569 whole entry G551D): as the sequence (P13569 whole entry G1349D) above, with G551D, D1349G counted along it
Description: as §2

P. aeruginosa = conditions: C57BL/6 mice, i.t. instillation at 0.1 mg/Kg (corresponding to 20 μM); cited from earlier work
From the text: In the last years, we identified two antimicrobial peptides (AMPs), Esculentin-1a(1–21)NH2 [Esc(1–21)] and its diastereomer Esc(1–21)−1c (Esc peptides, Table 1), with a strong activity against the free-living and sessile forms of P. aeruginosa and with the ability to accelerate recovery of damaged bronchial epithelium.

With `CC[C@H](C)[C@H](NC(=O)CN)C(=O)N[C@@H](Cc1ccccc1)C(=O)N[C@@H](CO)C(=O)N[C@@H](CCCCN)C(=O)N[C@@H](CC(C)C)C(=O)N[C@@H](C)C(=O)NC(C)(C)C(=O)N[C@@H](CCCCN)C(=O)N[C@@H](CCCCN)C(=O)N[C@H](C(=O)N[C@@H](CCCCN)C(=O)N[C@@H](CC(N)=O)C(=O)N[C@@H](CC(C)C)C(=O)N[C@@H](CC(C)C)C(=O)N[C@H](C(=O)N[C@@H](CO)C(=O)NCC(=O)N[C@@H](CC(C)C)C(=O)N[C@@H](CCCCN)C(=O)NCC(N)=O)[C@@H](C)CC)[C@@H](C)CC` [Esc_Aib-8, [Aib^8]-Esc(1–21)] (H-GIFSKLA[Aib]KKIKNLLISGLKG-NH2; N-terminus assumed) the viable cells (F508del-CFBE41o- cells) was “more than 90%”, the “ability to inhibit bacterial growth, in words” value [1] was “the most active one against Gram-negative bacteria” and the “reduction in the number of lung bacterial cells (CFU)” value (“reduction in the number” for short) (P. aeruginosa PAO1 [2]) was ~ 2 log10. The “lowering of lung bacterial burden (CFU)” value (P. aeruginosa PAO1 [3]) was ~ 2 log10, the “efficacy in lowering lung bacterial load, comparison in words” value (P. aeruginosa PAO1 [3]; 0.1 mg/kg i.t., lungs at 24 h) was “trend slightly stronger than that of Esc(1–21)−1c” and the “reduction of bacterial load (ASL plus intracellular CFU)” value (P. aeruginosa PAO1 [4]) was ~2 log10-unit.

For `O=c1ccn([C@@H]2O[C@H](COP(=O)(O)OP(=O)(O)OP(=O)(O)O)[C@@H](O)[C@H]2O)c(=O)[nH]1` [UTP], the “change in Fluo-4 fluorescence (intracellular calcium)” value [5] was “marked and rapid increase in fluorescence”.

For “GIFSKLAGKKIKNLLIEGLKG-NH2 [Esc-1C_DGlu-17, analog containing D-Glutamic acid at position 17]”, the “variation in CFTR-mediated conductance” value (G1349D-CFTR) was “no variation in CFTR-mediated conductance”, the “MIC increase versus reference Esc(1–21)−1c” value [1] was ~ 4 fold and the “variation in CFTR-mediated conductance” value (G551D-CFTR) was “no variation in CFTR-mediated conductance”.

With “GIFSKLAGKKIKNLLIEGLKG-NH2 [Esc_Glu-17, analog containing L-Glutamic acid at position 17]” the “variation in CFTR-mediated conductance” value (G1349D-CFTR) was “no variation in CFTR-mediated conductance”, the “ability to inhibit bacterial growth, in words” value [1] was “comparable to the reference Esc(1–21)−1c” and the “variation in CFTR-mediated conductance” value (G551D-CFTR) was “no variation in CFTR-mediated conductance”.

For “GIFSKLAGKKIKNLLISGLKG-NH2 [Esc(1–21)−1c, diastereomer of Esc(1–21)]”, the “reduction in the number” value (P. aeruginosa PAO1 [2]) is listed as ~ 2 log10, the “lowering of lung bacterial burden (CFU)” value (P. aeruginosa PAO1 [3]) is listed as ~ 2 log10 and the “effect on lung bacterial burden” value (P. aeruginosa) is listed as “reduce lung bacterial burden”.

For “Gly-Ile-Phe-Ser-Lys-Leu-Ala-Gly-Lys-Lys-Ile-Lys-Asn-Leu-Leu-Ile-phosphoSer-Gly-Leu-Lys-Gly-NH2 [D-phosphoEsc, isoform carrying a D-leucine at position 14 and D-phosphoserine at position 17]”, the “CFTR-mediated conductance (∆G) relative to FSK alone” value (G1349D-CFTR) was “at least 3 fold” and the “CFTR-mediated conductance (∆G) relative to FSK alone” value (G551D-CFTR) was “at least 3 fold”.

In the case of colistin [reference compound], the “reduction in the number” value (P. aeruginosa PAO1 [2]) is reported as ~ 2 log10.

Reference: article PMC11920571, “Esc peptides and derivatives potentiate the activity of CFTR with gating defects and display antipseudomonal activity in cystic fibrosis-like lung disease” (Cellular and Molecular Life Sciences: CMLS, 2025)
